Read-outs that look alike come from different tables or passages of the source.
Legend:
KDR = target: T1, KDR (Homo sapiens, UniProt P35968); assay: (125I)-VEGF binding inhibition on NIH3T3 cells in which KDR was forced to be expressed; settings: KDR-expressing NIH3T3 cells, (125I)-VEGF 25 pM, 90 minutes, read-out: IC50 (concentration of 50% binding inhibition)
T1 construct: expressed in transfected cells; host or cells: NIH3T3
Description: According to the method described in a document (Cell Growth & Differentiation, vol. 7, pp. 213-221, 1996), the following tests were carried out.
NIH3T3 cells in which Flt-1 was forced to be expressed were seeded on a 24-well collagen-coated plate (7×10^4/well), and were cultured in Dulbecco's modified Eagle's medium (DMEM) including 10% bovine serum and 200 μg/ml of Geneticin G418, for 24 hours at 37° C. under an atmosphere of 5% carbon dioxide gas. The cells were preincubated in Buffer A (including 10 mM HEPES (N-2-hydroxyethylpiperazine-N′-2-ethanesulfonic acid) and 0.1% BSA (bovine serum albumin) in DMEM), for 30 minutes at 4° C. Subsequently, the medium was replaced with Buffer B (including 10 mM HEPES and 0.5% BSA in DMEM). A test solution prepared by dissolving each of the test compounds shown in Table 19 in dimethylsulfoxide and subsequently diluting the solution into a prescribed concentration with Buffer B, and (^125I)-VEGF (the final concentration was set to 25 pM) were added thereto. Binding reaction was carried out for 90 minutes at […]. After completion of the reaction, the cells were washed three times with ice-cooled Buffer A. Subsequently, 0.5 ml of 0.5M NaOH were added to each well, and the cells were lysed in 30 minutes at room temperature. The radioactivity of the lysed cells in each well was measured by means of a gamma counter, and a total binding quantity of (^125I)-VEGF was calculated. Nonspecific binding quantity of (^125I)-VEGF was measured by competition assay in the presence of 10 nM non-labeled VEGF. The specific binding quantity of (^125I)-VEGF was calculated from the difference between the total binding quantity of (^125I)-VEGF and nonspecific binding quantity of (^125I)-VEGF.
The binding inhibition index of the test compounds was calculated by the following equation. [formula]
From this value, a concentration of 50% binding inhibition (IC50) of the test compound was calculated.
Test on each of the test compounds shown in Table 20 and Table 21 was carried out employing NIH3T3 cells in which KDR was forced to be expressed, in the same manner as described in Experimental Example 1 described above.

T1 sequence (P35968 20-1356): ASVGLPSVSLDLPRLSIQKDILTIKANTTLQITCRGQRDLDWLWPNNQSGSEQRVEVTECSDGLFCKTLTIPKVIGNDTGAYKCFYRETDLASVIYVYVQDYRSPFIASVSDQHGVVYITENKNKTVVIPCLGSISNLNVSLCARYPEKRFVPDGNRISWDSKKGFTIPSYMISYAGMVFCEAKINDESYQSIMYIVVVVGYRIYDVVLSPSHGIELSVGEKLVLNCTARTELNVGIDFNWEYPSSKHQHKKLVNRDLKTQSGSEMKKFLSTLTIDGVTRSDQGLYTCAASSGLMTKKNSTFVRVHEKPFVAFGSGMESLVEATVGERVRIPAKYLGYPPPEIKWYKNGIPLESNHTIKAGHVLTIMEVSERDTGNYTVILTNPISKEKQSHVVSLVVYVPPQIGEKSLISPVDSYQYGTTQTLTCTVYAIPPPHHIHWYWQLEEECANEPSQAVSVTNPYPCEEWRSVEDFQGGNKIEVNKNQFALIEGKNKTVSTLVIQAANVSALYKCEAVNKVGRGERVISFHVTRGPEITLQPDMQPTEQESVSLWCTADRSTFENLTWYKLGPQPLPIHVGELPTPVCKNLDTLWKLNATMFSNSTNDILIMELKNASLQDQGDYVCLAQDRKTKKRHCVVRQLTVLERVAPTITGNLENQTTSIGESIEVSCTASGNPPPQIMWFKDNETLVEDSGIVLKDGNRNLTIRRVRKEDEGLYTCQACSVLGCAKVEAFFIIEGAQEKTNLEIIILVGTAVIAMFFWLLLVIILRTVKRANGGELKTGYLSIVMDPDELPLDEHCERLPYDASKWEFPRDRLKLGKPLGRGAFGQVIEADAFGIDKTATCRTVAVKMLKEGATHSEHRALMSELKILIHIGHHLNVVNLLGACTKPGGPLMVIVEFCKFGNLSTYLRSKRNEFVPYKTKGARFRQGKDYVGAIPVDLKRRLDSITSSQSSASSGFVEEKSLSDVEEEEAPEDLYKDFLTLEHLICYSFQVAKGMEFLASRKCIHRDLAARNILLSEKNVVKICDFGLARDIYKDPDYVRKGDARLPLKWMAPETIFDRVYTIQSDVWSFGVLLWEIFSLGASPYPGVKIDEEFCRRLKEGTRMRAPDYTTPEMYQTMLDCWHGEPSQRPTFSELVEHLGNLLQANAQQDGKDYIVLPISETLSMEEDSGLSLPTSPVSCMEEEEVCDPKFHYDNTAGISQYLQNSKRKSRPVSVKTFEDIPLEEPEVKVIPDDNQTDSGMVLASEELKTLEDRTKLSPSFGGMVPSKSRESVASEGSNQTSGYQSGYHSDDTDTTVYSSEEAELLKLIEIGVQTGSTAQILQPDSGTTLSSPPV

melting point [°C]	IC50 (KDR; Table 20) [nM]	IC50 (KDR; Table 21) [nM]	SMILES
60 to 62	–	–	CCCCCCCCCCCCCCCCCCOc1ccc(CCC(=O)N(C)c2ccc(Oc3ccc(C(=O)OC)cc3)c(C(=O)OC)c2)cc1 [Compound 22]
184 to 186	1190	–	CCCCCCCCCCCCCCCCCCOc1ccc(CCC(=O)Nc2ccc(Oc3ccccc3C(=O)O)c(C(=O)O)c2)cc1 [Compound 29]
170 to 173	1230	–	CCCCCCCCCCCCCCCCCCOc1ccc(CCC(=O)Nc2ccc(Oc3ccc(CC(=O)O)cc3)c(C(=O)O)c2)cc1 [Compound 31]
163 to 167	930	–	CCCCCCCCCCCCCCCCCCOc1ccc(CCC(=O)Nc2ccc(Oc3cccc(CC(=O)O)c3)c(C(=O)O)c2)cc1 [Compound 32]
156 to 160	260	–	CCCCCCCCCCCCCCCCCCOc1ccc(CCC(=O)Nc2ccc(Oc3ccc(CCC(=O)O)cc3)c(C(=O)O)c2)cc1 [Compound 33]
200 to 208	340	–	CCCCCCCCCCCCCCCCCCOc1ccc(CCC(=O)Nc2ccc(Oc3ccc(/C=C/C(=O)O)cc3)c(C(=O)O)c2)cc1 [Compound 34]
215 to 225	200	–	CCCCCCCCCCCCCCCCCCOc1ccc(CCC(=O)Nc2ccc(Oc3ccc4cc(C(=O)O)ccc4c3)c(C(=O)O)c2)cc1 [Compound 35]
212 to 216	1270	–	CCCCCCCCCCCCCCCCCCOc1ccc(CCC(=O)Nc2cc(C(=O)O)ccc2Oc2cccc(C(=O)O)c2)cc1 [Compound 36]
214 to 219	710	–	CCCCCCCCCCCCCCCCCCOc1ccc(CCC(=O)Nc2cc(C(=O)O)ccc2Oc2ccc3cc(C(=O)O)ccc3c2)cc1 [Compound 38]
198 to 203	370	–	CCCCCCCCCCCCCCCCCCOc1ccc(CCC(=O)Nc2ccc(Sc3ccc(C(=O)O)cc3)c(C(=O)O)c2)cc1 [Compound 41]
194 to 198	450	–	CCCCCCCCCCCCCCCCCCOc1ccc(CCC(=O)Nc2ccc(Sc3cccc(C(=O)O)c3)c(C(=O)O)c2)cc1 [Compound 42]
246 to 248	660	–	CCCCCCCCCCCCCCCCCCOc1ccc(CCC(=O)Nc2cc(C(=O)O)ccc2Sc2cccc(C(=O)O)c2)cc1 [Compound 43]
221 to 223	910	–	CCCCCCCCCCCCCCCCCCOc1ccc(CCC(=O)Nc2ccc(Sc3ccc(C(=O)O)cn3)c(C(=O)O)c2)cc1 [Compound 44]
230 to 235	760	–	CCCCCCCCCCCCCCCCCCOc1ccc(CCC(=O)Nc2ccc(Nc3ccc(C(=O)O)cc3)c(C(=O)O)c2)cc1 [Compound 45]
235 to 240	400	–	CCCCCCCCCCCCCCCCCCOc1ccc(CCC(=O)Nc2ccc(Nc3cccc(C(=O)O)c3)c(C(=O)O)c2)cc1 [Compound 46]
247 to 252	940	–	CCCCCCCCCCCCCCCCCCOc1ccc(CCC(=O)Nc2ccc(Nc3ccccc3C(=O)O)c(C(=O)O)c2)cc1 [Compound 47]
65.5 to 66.5	–	–	CCCCCCCCCCCCCCCCCCOc1ccc(CCC(=O)N(C)c2ccc(SC)c(C(=O)OC)c2)cc1 [Compound 90]
60 to 69	–	–	CCCCCCCCCCCCCCCCCCOc1ccc(CC(=O)N(C)c2ccc(SC)c(C(=O)OC)c2)cc1 [Compound 91]
102 to 106	–	–	CCCCCCCCCCCCCCCCCCOc1ccc(CCC(=O)N(CC(=O)O)c2ccc(SC)c(C(=O)OC)c2)cc1 [Compound 102]
165 to 167	–	–	CCCCCCCCCCNC(=O)[C@H](CC(=O)O)NC(=O)CCCOc1ccc(CCC(=O)Nc2ccc(SC)c(C(=O)OC)c2)cc1 [Compound 105]
65 to 67	–	–	CCCCCCCCCCCCCCCCCCOc1ccc(CCC(=O)Nc2ccc([S+](C)[O-])c(C(=O)OC)c2)cc1 (stereo not drawn) [Compound 106]
92.5 to 94	–	–	CCCCCCCCCCCCCCCCCCOc1ccc(CC(=O)N(C)c2ccc(SCCO)c(C(=O)OC)c2)cc1 [Compound 109]
185 to 194	–	150	CCCCCCCCCCCCCCCCCCOc1ccc(CCC(=O)Nc2ccc(SC)c(C(=O)O)c2)cc1 [Compound 115]
200 to 204	–	160	CCCCCCCCCCCCCCCCCCOc1ccc(CC(=O)Nc2ccc(SC)c(C(=O)O)c2)cc1 [Compound 116]

melting point [°C]	IC50 (KDR; Table 20) [nM]	IC50 (KDR; Table 21) [nM]	SMILES
211 to 213	–	320	CCCCCCCCCCCCCCCCCCCCOc1ccc(CCC(=O)Nc2ccc(SC)c(C(=O)O)c2)cc1 [Compound 117]
209 to 212	–	1580	CCCCCCCCCCCCCCCCCCCCCCOc1ccc(CCC(=O)Nc2ccc(SC)c(C(=O)O)c2)cc1 [Compound 118]
174 to 176	–	290	CCCCCCCCCCCCCCCCCCOc1ccc(CCC(=O)Nc2ccc(SC)c(C(=O)O)c2)cc1OC [Compound 119]
257 to 260	–	440	CCCCCCCCCCCCCCCCCC(=O)Nc1ccc(CCC(=O)Nc2ccc(SC)c(C(=O)O)c2)cc1 [Compound 120]
200 to 205	–	1160	CCCCCCCCCCCCCCCCOc1ccc(CC(=O)Nc2ccc(SC)c(C(=O)O)c2)cc1 [Compound 127]
214 to 217	–	230	CCCCCCCCCCCCCCCCCC(=O)Nc1ccc(CC(=O)Nc2ccc(SC)c(C(=O)O)c2)cc1 [Compound 130]
224 to 228	–	310	CCCCCCCCCCCCCCCCCC(=O)Nc1cccc(CC(=O)Nc2ccc(SC)c(C(=O)O)c2)c1 [Compound 131]
247 to 250	–	1660	CCCCCCCCCCCCCCCCCC(=O)Nc1ccccc1CC(=O)Nc1ccc(SC)c(C(=O)O)c1 [Compound 132]
165 to 169	–	160	CCCCCCCCCCCCCCCCCCOc1ccc(OCC(=O)Nc2ccc(SC)c(C(=O)O)c2)cc1 [Compound 133]
197 to 202	–	120	CCCCCCCCCCCCCCCCOc1ccc(OCCCC(=O)Nc2ccc(SC)c(C(=O)O)c2)cc1 [Compound 134]
199 to 202	–	450	CCCCCCCCCCCCCCOc1ccc(OCCCCCC(=O)Nc2ccc(SC)c(C(=O)O)c2)cc1 [Compound 135]
193 to 196	–	400	CCCCCCCCCCCCOc1ccc(OCCCCCCCC(=O)Nc2ccc(SC)c(C(=O)O)c2)cc1 [Compound 136]
185 to 188	–	460	CCCCCCCCCCOc1ccc(OCCCCCCCCCC(=O)Nc2ccc(SC)c(C(=O)O)c2)cc1 [Compound 137]
180 to 185	–	430	CCCCCCCCOc1ccc(OCCCCCCCCCCCC(=O)Nc2ccc(SC)c(C(=O)O)c2)cc1 [Compound 138]
149 to 153	–	760	CCCCCCCCCCCCCCCCCCOc1ccc(CC(=O)Nc2ccc(SCC)c(C(=O)O)c2)cc1 [Compound 143]
216 to 219	–	1290	CCCCCCCCCCCCCCCCCCOc1ccc(CCC(=O)Nc2cc(C(=O)O)ccc2SC)cc1 [Compound 145]
174 to 177	–	630	CCCCCCCCCCCCCCCCCCOc1ccc(CCC(=O)Nc2cc(C(=O)O)ccc2SCC)cc1 [Compound 146]
150 to 152	–	570	CCCCCCCCCCCCCCCCCCOc1ccc(CCC(=O)Nc2cc(C(=O)O)ccc2SCCC)cc1 [Compound 147]
178 to 181	–	930	CCCCCCCCCCCCCCCCCCOc1ccc(CCC(=O)Nc2cc(C(=O)O)ccc2SCc2ccccc2)cc1 [Compound 148]
108 to 110	–	140	CCCCCCCCCCCCCCCCCCOc1ccc(CCC(=O)N(CC)c2ccc(SC)c(C(=O)O)c2)cc1 [Compound 149]
126 to 128	–	590	CCCCCCCCCCCCCCCCCCOc1ccc(CCC(=O)N(CC2CC2)c2ccc(SC)c(C(=O)O)c2)cc1 [Compound 150]
127 to 129	–	800	CCCCCCCCCCCCCCCCCCOc1ccc(CCC(=O)N(Cc2ccccc2)c2ccc(SC)c(C(=O)O)c2)cc1 [Compound 151]
156 to 157	–	250	CCCCCCCCCCCCCCCCCCOc1ccc(C=CC(=O)N(C)c2ccc(SC)c(C(=O)O)c2)cc1 [Compound 153]
